Reference: patent US20260199297A1, “FERROPTOSIS INDUCERS TO TREAT CANCER” (The University of Toledo, priority 2022, published 2026)
Like-named read-outs stand apart in the source and are kept apart here.

What was measured:
NCI-H522 cells [1] = test: Cytotoxicity (methylene blue cell viability), NCI-H522; assay type: cell-based, human; settings: Homo sapiens
Method: (§1) Having synthesized the CETZOLE analogs, their cytotoxic activity was evaluated. […] NCI-H522 RV-GFP is the corresponding control with RV-GFP tag, but without SLC7A11 overexpression. […] The cytotoxicity screening was conducted as described previously.
(§2) Cell lines were cultured in a humidified atmosphere containing 10% CO2 in Dulbecco's modified Eagle's medium (Mediatech, Inc) supplemented with 10% fetal bovine serum (Atlanta Biologicals). Cell types used MEFs, HT1080 (human fibrosarcoma cells), NARF2 (osteosarcoma), WI-38 (human embryonic lung fibroblast), MDA MB 231 (breast cancer), HCT-116 (human colon), and NCI-H522 (Non-Small Cell Lung Cancer) cell lines. To determine viability throughout these examples, 5,000 cells were plated per well of a 96-well plate and drugs were added 1 day later. Cells were stained 1 to 3 days later with a saturated solution of methylene blue in 50% ethanol. Plates were rinsed and retained dye was quantified by spectrophotometry. Absorbance was normalized to DMSO and given as 1 or 100% for cell viability. Results are representative of at least two independent experiments. Statistical significance was assessed using the Student's t test. All commercially available chemicals were obtained from Cayman Chemicals unless otherwise noted.

HT-1080 cells = test: Cytotoxicity (methylene blue cell viability), HT-1080; assay type: cell-based, human; settings: Homo sapiens
Method: as §1, §2

MDA-MB-231 cells = test: Cytotoxicity (methylene blue cell viability), MDA-MB-231; assay type: cell-based; settings: Homo sapiens
Method: as §1, §2

NCI-H522 cells [2] = assay type: cell-based; settings: human, 3 days
Source text: FIGS. 10A-10C: Results of live cell imaging.
FIG. 16: Evaluation of ferroptosis-inducing character of CETZOLE probes. A three-day ferroptosis rescue assay of NCI-H522 cells treated with DMSO, 1, RSL3, and CETZOLE analogs, and liproxstatin-1 co-treatment, showing significant ferroptosis inducing probes.
The live cell montage images in FIG. 10A show notable ferroptosis-related morphological changes, such as membrane breakage and floating cell debris in the medium. The NCI-H522 cell viability improved overall when cells were co-treated with the radical scavenger liproxstatin-1 (FIG. 10C). […] To confirm this, flow-cytometry was performed to quantify lipid peroxidation using redox-active BODIPY-C11 (FIGS. 11A-11E).
Overall, CETZOLE probes do induce radical-mediated cell death and are therefore indeed ferroptotic agents.
as §2, with “noted. Compound CETZOLE 1 and the analogs were synthesized as highlighted.” for “noted.”

HeLa cells = test: Cellular localization of probes by bio-imaging; assay type: cell-based; settings: 37° C. one hour, TAMRA-PEG-3-azide click
Method: FIGS. 17A-17E: Cellular localization of CETZOLE probes. […] Cells were incubated with the respective agent, permeabilized, subjected to TAMRA-PEG3 azide ligation, and viewed under microscope.
The thiazole alkyne pharmacophore undergoes thiol addition. Therefore, PPd is believed to interact covalently with the target protein, and the propargyl alkyne serves as a clickable bio-orthogonal handle for attaching reporter tags. On the other hand, PPe has a photoactivatable benzophenone moiety that covalently binds to the target protein(s) upon photo irradiation. Bio-imaging experiments were conducted to determine the spatial localization of CETZOLE probes in HeLa cells using fluorescent reporter tags. For this, HeLa cells were incubated with probe PPd and the negative control NPd (FIG. 17A) at 37° C. for one-hour. The cells were washed with cold PBS, fixed with formaldehyde (5%), permeabilized with triton-X, and subjected to bioorthogonal click reaction with TAMRA-PEG-3-azide in the presence of tris-hydroxypropyltriazolylmethylanine (THPTA), copper (II) sulfate (CuSO4), and sodium ascorbate. After multiple washings, cells were transferred on to a microscope viewing slide, stained with Hoechst dye, and observed under Olympus microscope (FIGS. 17C-17E).

[3] = test system: NCI-H522 GFP-SLC7A11 #8 cells; test: Cytotoxicity (methylene blue cell viability), NCI-H522 clone overexpressing GFP-SLC7A11; assay type: cell-based, human; settings: Homo sapiens; Table 1; NCI-H522 clone overexpressing GFP-tagged SLC7A11; read-out: Half maximal inhibitory concentration (IC50), NCI-H522 GFP-SCL7A11 #8
Method: as §1, §2

NCI-H522 RV-GFP cells = test: Cytotoxicity (methylene blue cell viability), NCI-H522 RV-GFP control clone; assay type: cell-based, human; settings: Homo sapiens, NCI-H522; Table 1; control clone with RV-GFP tag; read-out: Half maximal inhibitory concentration (IC50), NCI-H522 Rv-GFP
Method: as §1, §2

NARF2 cells = test: Cytotoxicity (methylene blue cell viability), NARF2; assay type: cell-based, human; settings: Homo sapiens; Table 1; NARF2 osteosarcoma cells; read-out: Half maximal inhibitory concentration (IC50), NARF2
Method: as §1, §2

WI38 cells = test: Cytotoxicity on normal cell line WI38; assay type: cell-based, human; settings: Homo sapiens, WI-38; Table 2; lung tissue fibroblast; read-out: Half maximal inhibitory concentration (IC50), Normal Cell Line WI38
Method: (§3) To determine cytotoxicity at a therapeutically more relevant concentration, cells were treated at a single concentration of […] (FIG. 12).
as §2

[4] = test system: MEFs (Mouse Embryonic Fibroblasts); test: Cytotoxicity on normal cell line MEFs; assay type: cell-based; settings: Fibroblast; Table 2; Mouse Embryonic Fibroblasts; read-out: Half maximal inhibitory concentration (IC50), Normal Cell Line Mefs
Method: as §3, §2

[5] = test system: NCI-H522 and HT-1080 cancer cell lines, WI38 and MEFs normal cell lines; test: Selective cytotoxicity assay at a single concentration; assay type: cell-based; set-up: dose or concentration left out as unconfirmed; settings: NCI-H522, HT-1080, WI38, MEFs
Method: Overall, WI38 cells were the most tolerant to the treatment, whereas MEF cells were partially tolerant and relatively less sensitive than both NCI-H522 and HT-1080 cells. To determine cytotoxicity at a therapeutically more relevant concentration, cells were treated at a single concentration of […] (FIG. 12).
as §2, with “noted. Compound CETZOLE 1 and the analogs were synthesized as highlighted.” for “noted.”

[6] = test system: 60 human cancer cell lines; test: NCI 60 human cancer cell line assay, single dose; assay type: cell-based; settings: single dose of 10 μM, 60 cell lines
Method: (§4) The cell lines used in this assay belonged to leukemia, non-small-cell lung cancer, colon cancer, CNS cancer, melanoma, ovarian cancer, renal cancer, prostate cancer, and breast cancer. The compounds were first tested at a single dose of 10 μM.

[7] = test system: renal cancer cell line UO-31; test: NCI 60 cell line assay, single dose, UO-31; assay type: cell-based, human; settings: single dose of 10 μM
Method: as §4, with “μM. Analogue 20a was the most cytotoxic with a mean percentage growth of 1.24 (FIG. 13A). […] Analogs 20a and 23 were further tested in the NCI dose response assay ([…]).” for “μM.”

[8] = test system: renal cancer cell line 786-0; test: NCI 60 cell line assay, single dose, 786-0; assay type: cell-based, human; settings: single dose of 10 μM
Method: as §4, with “μM. Analogue 20a was the most cytotoxic with a mean percentage growth of 1.24 (FIG. 13A). […] Analogs 20a and 23 were further tested in the NCI dose response assay ([…]).” for “μM.”

[9] = test system: ovarian cancer cell line IGROV1; test: NCI 60 cell line assay, single dose, IGROV1; assay type: cell-based, human; settings: single dose of 10 μM
Method: as §4, with “μM. Analogue 20a was the most cytotoxic with a mean percentage growth of 1.24 (FIG. 13A). […] Analogs 20a and 23 were further tested in the NCI dose response assay ([…]).” for “μM.”

[10] = test system: leukemia, ovarian cancer, and renal cancer cell lines; test: NCI dose response assay; assay type: cell-based, human
Method: as §4

[11] = test system: NCI-H522, HT-1080, and MDA-MB-231 cells; test: Cytotoxicity screening of CETZOLE probes and negative controls; assay type: cell-based; settings: 20 μM maximum concentration
Source text: The benzophenone bromo-alkane 28e was obtained by selective EDC coupling of diaminobenzophenone 31 with 4-pentynoic acid 32 to obtain amide 33, followed by dropwise addition of bromoacetyl bromide 30 to a solution of 33 and TEA in DCM. To obtain intermediate 28f, Boc-protection of methyl 2-amino-5-bromobenzoate 34 to get 35, followed by installing an azide group at the para position employing Markiewicz and Helquist conditions, gave the azide 36. This was subjected to saponification followed by EDC coupling with propargyl amine 38 to obtain 39. Boc deprotection to get 40 was followed by acylation of the resulting amine with bromoacetyl bromide 30 afforded the bromo alkane 28f. They were screened for activity on NCI-H522, HT-1080, and MDA-MB-231 cells prior to using in target identification.
A similar cytotoxicity trend was observed on HT-1080 and MDA-MB-231 cancer cell lines.
Cell lines were cultured in a humidified atmosphere containing 10% CO2 in Dulbecco's modified Eagle's medium (Mediatech, Inc) supplemented with 10% fetal bovine serum (Atlanta Biologicals). […] Plates were rinsed and retained dye was quantified by spectrophotometry. Absorbance was normalized to DMSO and given as 1 or 100% for cell viability. […] Statistical significance was assessed using the Student's t test. […]

[12] = NCI-H522, Table 3, probes and negative controls, read-out: IC50, NCI-H522
[13] = HT-1080, Table 3, probes and negative controls, read-out: IC50, HT-1080
[14] = MDA-MB-231, Table 3, probes and negative controls, read-out: IC50, MDA-MB-231

For `C#CCO/N=C1\CC(c2csc(C#C)n2)=C(C)C1O` (centres unmarked) [PPd, 4-(2-Ethynylthiazol-4-yl)-2-hydroxy-3-methylcyclopent-3-en-1-one 0-prop-2-yn-1-yl oxime], the IC50 (NCI-H522 cells [1]; [12]) was 2.31 ± 1.08 µM, the IC50 (HT-1080 cells; [13]) was 1.17 ± 0.12 µM and the IC50 (MDA-MB-231 cells; [14]) was 2.7 ± 0.72 µM. For the same compound, the “cell viability on liproxstatin-1 co-treatment (rescue)” value (NCI-H522 cells [2]) was 75% and the “spatial localization of probe” value (HeLa cells) was “intense intracellular aggregation of probe in the nucleus and vacuoles”.

In the case of `C#Cc1nc(C2=C(C)C(OC(C)=O)/C(=N/OC(C)=O)C2)cs1` (centres unmarked) [compound 20a, (E)-5-(Acetoxyimino)-3-(2-ethynylthiazol-4-yl)-2-methylcyclopent-2-en-1-yl acetate], the IC50 (NCI-H522 cells [1]; NCI-H522, Table 2, read-out: Half maximal inhibitory concentration (IC50), Cancer Cell Line NCI-H522) is reported as 0.17 ± 0.08 µM, the IC50 (NCI-H522 cells [1]; Table 1, NCI-H522 cancer cell line, read-out: Half maximal inhibitory concentration (IC50), NCI-H522) is reported as 0.17 ± 0.08 µM and the IC50 [3] is reported as 1.59 ± 0.49 µM. It also gave an IC50 (NCI-H522 RV-GFP cells) of 0.26 ± 0.11 µM, an IC50 (HT-1080 cells; HT-1080, Table 2, read-out: Half maximal inhibitory concentration (IC50), Cancer Cell Line HT1080) of 0.14 ± 0.06 µM and an IC50 (HT-1080 cells; Table 1, HT-1080 fibrosarcoma cell line, read-out: Half maximal inhibitory concentration (IC50), HT-1080) of 0.14 ± 0.06 µM. The IC50 (NARF2 cells) was 7.26 ± 2.01 µM, the IC50 (MDA-MB-231 cells; Table 1, MDA-MB-231 breast cancer cell line, read-out: Half maximal inhibitory concentration (IC50), MDA-MB-231) was 0.23 ± 0.02 µM and the IC50 (WI38 cells) was 1.53 ± 0.36 µM. The IC50 [4] was 0.12 ± 0.06 µM, the “cell viability on liproxstatin-1 co-treatment (rescue)” value (NCI-H522 cells [2]) was 60% and the “cell death at a single concentration” value [5] was “killed only the cancer cell lines NCI-H522 and HT-1080”. The mean percentage growth [6] was 1.24, the “percentage growth, UO-31” value [7] was −95% and the “percentage growth, 786-0” value [8] was −95%. The “percentage growth, IGROV1” value [9] was −95% and the “sensitivity of cell lines in dose response assay” value [10] was “particularly sensitive”.

For `C#Cc1nc(C2=C(C)C(=O)/C(=N/OCC(=O)Nc3ccc4oc(=O)c(C)cc4c3)C2)cs1` [PPc, (E)-2-(((4-(2-Ethynylthiazol-4-yl)-3-methyl-2-oxocyclopent-3-en-1-ylidene)amino)oxy)-N-(3-methyl-2-oxo-2H-chromen-6-yl)acetamide], the IC50 (NCI-H522 cells [1]; [12]) was > 20 µM, the IC50 (HT-1080 cells; [13]) was > 20 µM and the IC50 (MDA-MB-231 cells; [14]) was > 20 µM. For the same compound, the “cytotoxicity at maximum concentration tested” value [11] was “did not induce any cytotoxicity”.
